Results taken from patent US20230219964A1, “ANTIBACTERIAL AND ANTIFUNGAL PLEUROMUTILIN CONJUGATES” (SYDDANSK UNIVERSITET, priority 2020, published 2023).
≈ marks a conversion by molar mass, not a printed value.

Columns and labels:
[1] = system: Multi-resistant Staphylococcus aureus (MRSA) USA300 cells; assay: MIC in vitro broth micro-dilution assay, MRSA USA300; format: cell-based; conditions: lowest concentration to fully inhibit visible growth (OD600), ATCC strain; for MIC: Staphylococcus aureus, read-out: in vitro susceptibility (MIC) MRSA USA3000
Procedure: (§1) Bacterial susceptibility was established through an in vitro cell-based broth micro-dilution assay. To produce accurate and reproducible MIC-values, a procedure was used which follows the guidelines set by the Clinical and Laboratory Standards Institute (CLSI, USA) and the European Committee on Antimicrobial Susceptibility Testing (EUCAST). The micro-dilutions were carried out in 96-well plates, according to FIG. 3, wherein column 1 is a growth control, Columns 2 to 11 are dilutions of 1×, 2×, 4×, 8×, 16×, 32×, 64×, 128×, 256×, 512× respectively, and column 12 is a sterile control. To further increase the reliability of each susceptibility test, inoculation involved the use of three independent overnight cultures (ON1-ON3) thus giving rise to […]. Furthermore, each ON was added to two individual dilution rows, giving rise to […]. The standard inoculum was set to ˜5-10^5 colony-forming units (CFU) mL^−1. This was verified by dilution onto agar plates after each overall run.
(§2) The applied procedure was:
(§3) 1.1 MH or BHI agar plates for dilutions were created, 1 plate per overnight (ON) culture and MH or BHI media. 1.2 Day 1: Preparation of ON cultures of the bacterial strain in question, by inoculation of a single colony in 5 mL of MH or BHI media. Then incubation at 37° C. with aeration for approximately 16-20 hours. Biological triplicates were created by inoculation from 3 different colonies per strain.
(§4) 1.3 Day 2: A 96-well plate with the antibiotic/compound in question was prepared as according to FIG. 3: 1.4 In a 15 mL falcon tube, an appropriate volume of a 1000 μg/mL antibiotic/compound DMSO stock was diluted with MH or BHI media such that a 2× concentration and total volume of 10 mL was achieved. 1.5 A multi-channel pipette was used in the following. 1.6 Column 1 was used for growth control, so no antibiotic/compound was added to that column. 1.7 200 μl of 2× concentration of the antibiotic/compound was added to column 2. Technical duplicates were always created, thus 2 columns per ON culture. 1.8 100 μl of MH or BHI media was added to columns 1, 3-11 and 200 μl of MH or BHI media to column 12. 1.9 100 μl was transferred from column 2 to column 3. The same pipetting tips were used to transfer 100 μL from column 3 to 4. This scheme was repeated until column 11 where 100 μl was discarded after re-suspending. Column 12 was used as a sterile control, so no antibiotic/compound was added to that column. Each transferring involved pipetting up and down 5 to 7 times. 1.10 The plates were fully dried for CFU in the 42° C. incubator, 4× dilutions in triplicates per one plate.
(§5) 1.11 The optical density of bacterial cells in the ON culture was measured at wavelength 600 nm (OD600). Then the ON culture was diluted to an OD600=0.1. 1.12 Then the OD600 was re-measured to make certain that it was between 0.08 and 0.13. 1.13 The prepared 0.1 culture of 1.12 was diluted 100× more by transferring of 100 μl thereof, to 10 ml of MH or BHI media (enough for a 96-well plate). 1.14 Then 200 μl of the 100× dilution in 1.13 was transferred to Eppendorf tubes and kept cold until use. 1.15 100 μl of culture with an OD600 on approximately 0.001 was dispensed to each well of columns 1 to 11. 1.16 The plate was closed. Covered with aluminium foil and small holes were created with a 100-200 μL tip.
(§6) 1.17 The 96-well plate was then incubated at 37° C. with agitation and left for 16-hours.
(§7) 1.18 Verification of standard inoculum: The 100× diluted culture of 1.13 was used to create 10^−1 to 10^−4 dilutions in PBS/0.9% saline (100 μl sample to 900 μl PBS, mix well and continue until 10^−4). 1.19 10 μl of the 10^−2, 10^−3 and 10^−4 dilutions in 1.18 were spotted onto very dry MH or BHI plates in triplicates. 1.20 Then incubated overnight at 37° C. 1.21 The plates were examined manually or by using the plate reader.

S. pneumonia cells = assay: MIC in vitro broth micro-dilution assay, S. pneumonia; format: cell-based, Streptococcus pneumonia; conditions: lowest concentration to fully inhibit visible growth (OD600), clinical isolate; for MIC: Streptococcus pneumoniae, read-out: in vitro susceptibility (MIC) S. Pneumonia
Procedure: as §1, §2, §3, §4, §5, §6, §7

[2] = system: vancomycin-resistant enterococci (VRE) cells, VRE 1; assay: MIC in vitro broth micro-dilution assay, VRE 1; format: cell-based; conditions: lowest concentration to fully inhibit visible growth (OD600), clinical isolate, ampicillin, ciprofloxacin and vancomycin resistant; for MIC: Enterococcus, VRE, read-out: in vitro susceptibility (MIC) VRE 1
Procedure: as §1, §2, §3, §4, §5, §6, §7

E. faecalis cells = assay: MIC in vitro broth micro-dilution assay, E. faecalis; format: cell-based, Enterococcus faecalis; conditions: lowest concentration to fully inhibit visible growth (OD600), clinical isolate; for MIC: Enterococcus faecalis, read-out: in vitro susceptibility (MIC) E. Faecalis
Procedure: as §1, §2, §3, §4, §5, §6, §7

[3] = system: vancomycin-resistant enterococci (VRE) cells, VRE 5; assay: MIC in vitro broth micro-dilution assay, VRE 5; format: cell-based; conditions: lowest concentration to fully inhibit visible growth (OD600), clinical isolate, ampicillin, ciprofloxacin, vancomycin and linezolid resistant; for MIC: Enterococcus, VRE, read-out: in vitro susceptibility (MIC) VRE 5
Procedure: as §1, §2, §3, §4, §5, §6, §7

C=C[C@]1(C)C[C@@H](OC(=O)Cn2cc(-c3ccc([C@@H](C)n4cnc5c(N)ncnc54)cc3)nn2)[C@]2(C)[C@H](C)CC[C@]3(CCC(=O)[C@H]32)[C@@H](C)[C@@H]1O [C12, 22-[4-(4-((R)-1-(6-amino-9H-purin-9-yl)ethyl)phenyl)-1H-1,2,3-triazol-1-yl]-22-deoxypleuromutilin]
MIC [1]: 0.12 µg/mL (≈ 0.18 µM)
MIC (S. pneumonia cells): 0.25 µg/mL (≈ 0.375 µM)
MIC [2]: 0.25 µg/mL (≈ 0.375 µM)
MIC (E. faecalis cells): 0.25 µg/mL (≈ 0.375 µM)
MIC [3]: 0.25 µg/mL (≈ 0.375 µM)

C=C[C@]1(C)C[C@@H](OC(=O)Cn2cc(-c3ccc([C@@H](C)n4cnc5c(N6CCNCC6)ncnc54)cc3)nn2)[C@]2(C)[C@H](C)CC[C@]3(CCC(=O)[C@H]32)[C@@H](C)[C@@H]1O [C13, 22-[4-(4-((R)-1-(6-(piperazin-1-yl)-9H-purin-9-yl)ethyl)phenyl)-1H-1,2,3-triazol-1-yl]-22-deoxypleuromutilin]
MIC [1]: 0.5 µg/mL (≈ 0.679 µM)
MIC (S. pneumonia cells): 0.25 µg/mL (≈ 0.34 µM)
MIC [2]: 0.25 µg/mL (≈ 0.34 µM)
MIC (E. faecalis cells): 0.25 µg/mL (≈ 0.34 µM)
MIC [3]: 0.12 to 0.25 µg/mL (≈ 0.163 to 0.34 µM)

C=C[C@]1(C)C[C@@H](OC(=O)Cn2cc(-c3cccc(NC(=O)c4ccc(OC)cc4)c3)nn2)[C@]2(C)[C@H](C)CC[C@]3(CCC(=O)[C@H]32)[C@@H](C)[C@@H]1O [C15, 22-[4-(3-(4-methoxybenzamido)phenyl)-1,2,3-triazole-1-yl]-22-deoxypleuromutilin]
MIC [1]: 0.12 µg/mL (≈ 0.183 µM)
MIC (S. pneumonia cells): 0.25 µg/mL (≈ 0.382 µM)
MIC [2]: 0.12 µg/mL (≈ 0.183 µM)
MIC (E. faecalis cells): 0.25 µg/mL (≈ 0.382 µM)
MIC [3]: 0.25 µg/mL (≈ 0.382 µM)

C=C[C@]1(C)C[C@@H](OC(=O)Cn2cc(-c3cccc(Nc4ncnc5[nH]cnc45)c3)nn2)[C@]2(C)[C@H](C)CC[C@]3(CCC(=O)[C@H]32)[C@@H](C)[C@@H]1O [C18, 22-[4-(3-((9H-purin-6-yl)amino)phenyl)-1,2,3-triazole-1-yl]-22-deoxypleuromutilin]
MIC [1]: 0.06 µg/mL (≈ 0.0939 µM)
MIC (S. pneumonia cells): 0.5 µg/mL (≈ 0.783 µM)
MIC [2]: 0.25 µg/mL (≈ 0.391 µM)
MIC (E. faecalis cells): 0.5 µg/mL (≈ 0.783 µM)
MIC [3]: 0.25 µg/mL (≈ 0.391 µM)

C=C[C@]1(C)C[C@@H](OC(=O)Cn2cc(-c3cc(C#N)ccc3O)nn2)[C@]2(C)[C@H](C)CC[C@]3(CCC(=O)[C@H]32)[C@@H](C)[C@@H]1O [C19, 22-[4-(5-cyano-2-hydroxyphenyl)-1H-1,2,3-triazol-1-yl]-22-deoxypleuromutilin]
MIC [1]: 0.25 µg/mL (≈ 0.457 µM)
MIC (S. pneumonia cells): 4 µg/mL (≈ 7.32 µM)
MIC [2]: 1 µg/mL (≈ 1.83 µM)
MIC (E. faecalis cells): 2 µg/mL (≈ 3.66 µM)
MIC [3]: 1 µg/mL (≈ 1.83 µM)

C=C[C@]1(C)C[C@@H](OC(=O)Cn2cc(-c3ccc(Cn4cc(C)c(=O)[nH]c4=O)cc3)nn2)[C@]2(C)[C@H](C)CC[C@]3(CCC(=O)[C@H]32)[C@@H](C)[C@@H]1O [C20, 22-[4-(4-((Thymine-1-yl)methyl)phenyl)-1,2,3-triazol-1-yl]-22-deoxypleuromutilin]
MIC [1]: 0.12 µg/mL (≈ 0.186 µM)
MIC (S. pneumonia cells): 1 µg/mL (≈ 1.55 µM)
MIC [2]: 0.5 µg/mL (≈ 0.777 µM)
MIC (E. faecalis cells): 1 µg/mL (≈ 1.55 µM)
MIC [3]: 0.5 µg/mL (≈ 0.777 µM)

Retapamulin [reference compound]
in vitro susceptibility (MIC) MRSA USA3000 [1]: 0.25 µg/mL
in vitro susceptibility (MIC) S. Pneumonia (S. pneumonia cells): 0.12 µg/mL
in vitro susceptibility (MIC) VRE 1 [2]: 0.03 µg/mL
in vitro susceptibility (MIC) E. Faecalis (E. faecalis cells): 0.12 µg/mL
in vitro susceptibility (MIC) VRE 5 [3]: 0.03 µg/mL

Valnemulin [reference compound]
in vitro susceptibility (MIC) MRSA USA3000 [1]: 0.06 µg/mL
in vitro susceptibility (MIC) S. Pneumonia (S. pneumonia cells): 0.06 to 0.12 µg/mL
in vitro susceptibility (MIC) VRE 1 [2]: 0.03 µg/mL
in vitro susceptibility (MIC) E. Faecalis (E. faecalis cells): 0.03 µg/mL
in vitro susceptibility (MIC) VRE 5 [3]: 0.015 µg/mL
